Data: ChEMBL document CHEMBL1201862, “PubChem BioAssay data set” (2004)
Values joined by “and” are separate entries in the source; they are usually repeats but may differ in a detail not shown here. Identical values can stand only once.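 Where inhibition never reached the appropriate level, the endpoint shown equals the highest concentration tested. Otherwise, values were interpolated linearly from a five-concentration, 48-hour dose response in 96-well plates. GI50: concentration for 50% inhibition of growth.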 Active and inactive are the calls of the source. No stated cut-off is given here; in the data, active = GI50 up to about 1.1 µM and inactive = higher.

How the values were obtained:
Test in all cases: NCI-60 cell line screen, 48 h
[1] = test system: 786-0
[2] = test system: CCRF-CEM
[3] = test system: HL-60
[4] = test system: Hs-578T
[5] = test system: M14
[6] = test system: MCF7
[7] = test system: MDA-MB-231
[8] = test system: MDA-N
[9] = test system: SF-268
[10] = test system: SF-295
[11] = test system: SK-MEL-28
[12] = test system: SK-OV-3
[13] = test system: SN12C
[14] = test system: SW-620
[15] = test system: TK-10
[16] = test system: U-251
[17] = test system: UACC-257
[18] = test system: UACC-62
[19] = test system: CAKI-1
[20] = test system: RPMI-8226

Measured: GI50

Cc1cn(CC2=NCC(C)(C)CN2)c(=O)[nH]c1=O
inactive: [1] > 100 µM | [2] > 100 µM | [3] > 100 µM | [4] > 100 µM | [5] > 100 µM | [6] > 100 µM | [7] > 100 µM | [8] > 100 µM | [9] > 100 µM | [10] > 100 µM | [11] > 100 µM | [12] > 100 µM | [13] > 100 µM | [14] > 100 µM | [15] > 100 µM | [16] > 100 µM | [17] > 100 µM | [18] > 100 µM

c1ccc(CCc2cccnc2)nc1
inactive: [1] > 100 µM | [19] > 100 µM | [4] > 100 µM | [5] > 100 µM | [6] > 100 µM | [7] > 100 µM | [8] > 100 µM | [20] > 100 µM | [9] > 100 µM | [10] > 100 µM | [11] > 100 µM | [12] > 100 µM | [13] > 100 µM | [14] > 100 µM | [15] > 100 µM | [16] > 100 µM | [17] > 100 µM | [18] > 100 µM

N#CCN1c2ccccc2CCC1Cl (stereo not drawn)
inactive: [1] > 10 µM | [19] > 10 µM | [2] > 10 µM | [4] > 10 µM | [5] > 10 µM | [6] > 10 µM | [7] > 10 µM | [8] > 10 µM | [20] > 10 µM | [9] > 10 µM | [10] > 10 µM | [11] > 10 µM | [12] > 10 µM | [13] > 10 µM | [14] > 10 µM | [15] > 10 µM | [16] > 10 µM | [17] > 10 µM | [18] > 10 µM

CC1OC(OC2C(OC(=O)[C@]34CCC(C)(C)C[C@H]3C3=CC[C@@H]5[C@@]6(C)CC[C@H](OC7OC(CO)C(O)C(O)C7OC7OC(CO)C(O)C(O)C7O)C(C)(C)[C@@H]6CC[C@@]5(C)[C@]3(C)CC4)OCC(O)C2O)C(O)C(O)C1OC1OCC(O)C(OC2OCC(O)C(O)C2O)C1O (stereo partly drawn)
inactive: [1] 6.67 µM and 5.46 µM | [19] 3.6 µM and 4 µM | [2] 11.3 µM and 13.2 µM | [4] 13.5 µM and 12.9 µM | [5] 1.97 µM and 1.79 µM | [7] 3.14 µM and 2.84 µM | [8] 1.64 µM and 1.88 µM | [20] 3.98 µM and 4.43 µM | [9] 6.03 µM and 5.07 µM | [10] 3.44 µM and 3.78 µM | [11] 2.09 µM and 2.18 µM | [12] 12.6 µM and 13.1 µM | [13] 2.15 µM | [14] 10.4 µM and 11 µM | [15] 8.41 µM and 8.63 µM | [16] 6.76 µM and 9.84 µM | [17] 2.22 µM and 2.33 µM | [18] 2.21 µM and 2.5 µM

CCCCCCCCCc1nn2c(Cc3ccccc3)nnc2s1
inactive: [1] 19.2 µM | [19] 30.3 µM | [4] 20.8 µM | [5] 20.8 µM | [6] 41.1 µM | [7] 24.5 µM | [8] 20.6 µM | [20] 23.6 µM | [9] 16.7 µM | [10] 18.9 µM | [11] 17.7 µM | [12] 25.5 µM | [13] 18.2 µM | [14] 17.6 µM | [15] 24.6 µM | [16] 18.7 µM | [17] 23.5 µM | [18] 18 µM

COc1ccc(-c2cc(-c3cc(F)c(Cl)cc3Cl)[nH]n2)cc1OC
inactive: [1] 19.6 µM | [19] 50.8 µM | [2] 11.6 µM | [3] 15.6 µM | [4] 43.7 µM | [5] 75 µM | [7] 30.4 µM | [8] 52.8 µM | [20] 17.3 µM | [9] 29.2 µM | [10] 18.3 µM | [11] 48.6 µM | [12] 31.9 µM | [13] 22.7 µM | [14] 29.6 µM | [15] 43.4 µM | [16] 26.9 µM | [17] 32.7 µM

COCc1cc2c(cc1/C(=C/[N+](=O)[O-])CS(=O)(=O)c1ccccc1)OCO2
inactive: [1] > 100 µM | [19] > 100 µM | [2] > 100 µM | [3] > 100 µM | [4] > 100 µM | [5] > 100 µM | [6] > 100 µM | [8] > 100 µM | [20] > 100 µM | [9] > 100 µM | [10] > 100 µM | [11] > 100 µM | [12] > 100 µM | [13] > 100 µM | [14] > 100 µM | [15] > 100 µM | [16] > 100 µM | [17] > 100 µM | [18] > 100 µM

CC1CC(N)=C(C#N)C1(C#N)C#N (stereo not drawn)
inactive: [1] > 100 µM | [19] 24.3 µM | [3] > 100 µM | [4] > 100 µM | [5] > 100 µM | [6] > 100 µM | [7] > 100 µM | [8] > 100 µM | [20] > 100 µM | [9] > 100 µM | [10] > 100 µM | [12] > 100 µM | [13] > 100 µM | [14] > 100 µM | [15] > 100 µM | [16] > 100 µM | [17] > 100 µM | [18] > 100 µM

O=C(O)c1cc2ccccc2c(/N=N/c2c([N+](=O)[O-])cc([N+](=O)[O-])cc2S(=O)(=O)O)c1O
inactive: [1] > 100 µM | [19] > 100 µM | [2] > 100 µM | [4] > 100 µM | [5] > 100 µM | [7] > 100 µM | [8] > 100 µM | [20] > 100 µM | [9] > 100 µM | [10] > 100 µM | [11] > 100 µM | [12] > 100 µM | [13] > 100 µM | [14] > 100 µM | [15] > 100 µM | [16] > 100 µM | [17] > 100 µM | [18] > 100 µM

CC(C)(C)OC(=O)N1C(OP(=O)(Oc2ccccc2)Oc2ccccc2)=COc2cccnc21
inactive: [1] 94.6 µM | [19] 40.3 µM | [3] 16.2 µM | [4] 86.5 µM | [5] 37.1 µM | [6] 32.7 µM | [7] 71 µM | [8] 36.3 µM | [20] 21.8 µM | [9] 63.2 µM | [10] 34.7 µM | [11] 54.2 µM | [12] 98.2 µM | [13] 70.1 µM | [14] 38.9 µM | [15] 31 µM | [16] 40.5 µM | [17] 30 µM | [18] 64.6 µM
